Patent publication US8431578B2, “Organic compounds” (Novartis AG, priority 2008, dated 2013)
Each block holds one molecule with its values, some of them ahead of it.

How the values were obtained:
[1] = biological target: T1, ALK5 T204D (kinase domain of human ALK5, amino acids 200-503) (Homo sapiens, UniProt P36897, T204D); experiment: ALK5 kinase activity, [33P] phosphate incorporation into casein; format: biochemical; conditions: casein substrate, 1 μM unlabelled ATP
T1 construct: The kinase domain of human ALK5 (amino acids 200-503); made in house; host or cells: insect cells (baculovirus expression)
T1 sequence (P36897 200-503 T204D): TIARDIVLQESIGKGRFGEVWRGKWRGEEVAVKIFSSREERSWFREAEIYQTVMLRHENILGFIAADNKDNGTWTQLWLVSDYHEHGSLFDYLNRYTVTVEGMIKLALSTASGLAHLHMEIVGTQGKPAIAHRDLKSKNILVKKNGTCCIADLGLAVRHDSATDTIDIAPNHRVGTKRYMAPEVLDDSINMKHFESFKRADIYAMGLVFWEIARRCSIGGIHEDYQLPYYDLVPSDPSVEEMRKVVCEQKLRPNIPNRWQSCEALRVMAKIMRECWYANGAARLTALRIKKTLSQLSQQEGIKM
Description: The kinase activity of ALK5 is assessed by measuring radiolabelled phosphate [33P] incorporation in to the generic substrate, casein. The kinase domain of human ALK5 (amino acids 200-503) is fused to an N-terminal histidine tag. The kinase activity of ALK5 is rendered constitutive via point mutation at amino acid 204 (threonine to aspartate modification, ALK5 T204D) and the kinase construct is engineered to be expressed from a baculovirus expression construct in insect cells. The purified, recombinantly-expressed histidine-tagged ALK5 T204D protein is dissolved at 5.4 mg/ml in 50 mM Tris-HCl pH 8.0, 150 mM NaCl, 5 mM DTT. ALK5 T204D is dissolved to 2.5 μg/ml in assay buffer (Assay buffer: 20 mM Tris-HCl pH 7.4, 10 mM MgCl2, 2 mM MnCl2) on the day of use.
Test compounds and reference compounds are dissolved in assay buffer without DTT containing 5% (v/v) DMSO. Stock solutions of test and reference compounds are diluted in assay buffer with DTT (1.25 mM) containing 4.5% (v/v) DMSO. 10 μl of test or reference compound are added to the appropriate wells of 96 well U-bottomed plate. Total enzyme activity is determined by measuring ALK5 T204D activity in the absence of ALK5 kinase inhibitor reference compounds. Non-specific binding (NSB) is determined by measuring the activity of ALK5 T204D in the presence of ALK5 kinase inhibitor reference compounds. 10 μl of dephosphorylated casein stock solution (dephosphorylated casein is dissolved in ddH2O at 20 mg/ml) is added per well (200 μg/well final assay concentration). 20 μl of ALK5 T204D (2.5 μg/ml solution) is added per well (50 ng/well final assay concentration). The plates are left to incubate at room temperature for 10 minutes.
10 μl of ATP mix is added to the well to initiate the reaction (0.66 nM [^33P]ATP/1 μM unlabelled ATP/well final assay concentration). The ATP mix is prepared as follows, unlabelled ATP (3 mM) is dissolved in ddH2O and pH adjusted to 7.4. The stock concentration of [^33P]ATP is 10 μCi/μl. The appropriate volume of [^33P]ATP is added to unlabelled ATP solution such that the final assay concentration per well is 0.1 μCi. Following addition of the ATP mix, the plates are incubated at room temperature for 50 minutes. The kinase reaction is terminated by the addition of 50 μL Stop Buffer (20 mM Tris-HCl pH 7.4, 10 mM EDTA).
75 μl/well from the reaction plate is transferred to a Multiscreen-IP plate (MultiScreen-IP plates are prepared by added 50 μL of 70% (v/v) ethanol per well and incubated for 5 minutes at room temperature. The ethanol is removed by aspiration via a MultiScreen HTS Vaccum Manifold unit (Millipore, Cat no: MSVMHT500). The plates are washed twice by adding 200 μl/well ddH2O). The MultiScreen-IP plate is incubated at room temperature for 30 minutes to allowing binding of casein to the plate. The MultiScreen-IP plates are washed three times by adding 200 μl/well 100 mM phosphoric acid solution and the gasket is carefully removed from the back of the MultiScreen-IP plate and the plate dried in the oven for 30 minutes. The MultiScreen-IP plate is backsealed, 50 μL of Microscint™20 is added, then the plates are topsealed and radiolabelled casein detected and quantified on a TopCount™ plate-reader using the ^33P scintillation protocol.

[2] = system: dimethylnitrosamine induced liver fibrosis; conditions: rat, cited from earlier work
[3] = system: bleomycin-induced pulmonary fibrosis; conditions: bleomycin-treated rats; cited from earlier work
[4] = dimethylnitrosamine induced liver fibrosis, given therapeutically

- IC50 [1]: 335 nM
Molecule: CC(C)N1CCN(C(=O)c2ccc(-c3cncc(-c4cc(Cl)nc(-c5ccccn5)n4)c3)cc2)CC1 [Example 1, {4-[5-(6-Chloro-2-pyridin-2-yl-pyrimidin-4-yl)-pyridin-3-yl]-phenyl}-(4-isopropyl-piperazin-1-yl)-methanone]

- IC50 [1]: 592 nM
Molecule: CC(C)N1CCN(C(=O)c2ccc(-c3cncc(-c4ccnc(-c5ccccn5)n4)c3)cc2)CC1 [Example 3, (4-Isopropyl-piperazin-1-yl)-{4-[5-(2-pyridin-2-yl-pyrimidin-4-yl)-pyridin-3-yl]-phenyl}-methanone]

- IC50 [1]: 261 nM
Molecule: Cc1cccc(-c2nc(OCCc3c[nH]c4ccccc34)cc(-c3cccnc3)n2)n1 [Example 6, 3-{2-[2-(6-Methyl-pyridin-2-yl)-6-pyridin-3-yl-pyrimidin-4-yloxy]-ethyl}-1H-indole]

- IC50 [1]: 265 nM
Molecule: Cc1cccc(-c2nc(OCc3ccccc3)cc(-c3cncc(-c4ccc(C(=O)N5CCN(C(C)C)CC5)cc4)c3)n2)n1 [Example 8, (4-{5-[6-Benzyloxy-2-(6-methyl-pyridin-2-yl)-pyrimidin-4-yl]-pyridin-3-yl}-phenyl)-(4-isopropyl-piperazin-1-yl)-methanone]

- IC50 [1]: 24 nM
Molecule: CC(C)N1CCN(C(=O)c2ccc(-c3cncc(-c4cc(OCc5ccccc5)nc(-c5ccccn5)n4)c3)cc2)CC1 [Example 11, {4-[5-(6-Benzyloxy-2-pyridin-2-yl-pyrimidin-4-yl)-pyridin-3-yl]-phenyl}-(4-isopropyl-piperazin-1-yl)-methanone]

Molecule: c1ccc(-c2cc(-c3cn[nH]c3-c3ccccn3)ccn2)cc1 [GW6604]
- inhibition of extracellular matrix deposition [2, 4]: 60%
- prevention of the death rate [2, 4]: 40%
- side effects ([2]; during the 3 weeks treatment): no obvious side effects

B1: Follistatin: an antagonist of activin signalling (protein, UniProt P19883 30-344, looked up)
Follistatin: GNCWLRQAKNGRCQVLYKTELSKEECCSTGRLSTSWTEEDVNDNTLFKWMIFNGGAPNCIPCKETCENVDCGPGKKCRMNKKNKPRCVCAPDCSNITWKGPVCGLDGKTYRNECALLKARCKEQPELEVQYQGRCKKTCRDVFCPGSSTCVVDQTNNAYCVTCNRICPEPASSEQYLCGNDGVTYSSACHLRKATCLLGRSIGLAYEGKCIKAKSCEDIQCTGGKKCLWDFKVGRGRCSLCDELCPDSKSDEPVCASDNATYASECAMKEAACSSGVLLEVKHSGSCNSISEDTEEEEEDEDQDYSFPISSILEW
- effect on lung fibrosis [3]: attenuated lung fibrosis
